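Five concentrations, 48 hours, 96-well plates. At the GI50, growth is halved.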 The source made the active and inactive calls. No stated cut-off is given here; in the data, active = GI50 up to about 1.1 µM and inactive = higher.
Legend:
Assay in all cases: NCI tumour cell line growth inhibition, 48 h
CAKI-1 = system: CAKI-1
CCRF-CEM = system: CCRF-CEM
HCT-116 = system: HCT-116
HL-60 = system: HL-60
HOP-62 = system: HOP-62
HOP-92 = system: HOP-92
IGROV-1 = system: IGROV-1
K562 = system: K562
MDA-MB-435 = system: MDA-MB-435
NCI-H23 = system: NCI-H23
NCI/ADR-RES = system: NCI/ADR-RES
OVCAR-5 = system: OVCAR-5
RXF 393 = system: RXF 393
SF-295 = system: SF-295
SK-MEL-5 = system: SK-MEL-5
SK-OV-3 = system: SK-OV-3
T47D = system: T47D
U-251 = system: U-251
UACC-257 = system: UACC-257

| SMILES | GI50 (CAKI-1) | GI50 (CCRF-CEM) | GI50 (HCT-116) | GI50 (HL-60) | GI50 (HOP-62) | GI50 (HOP-92) | GI50 (IGROV-1) | GI50 (K562) | GI50 (MDA-MB-435) | GI50 (NCI-H23) | GI50 (NCI/ADR-RES) | GI50 (OVCAR-5) | GI50 (RXF 393) | GI50 (SF-295) | GI50 (SK-MEL-5) | GI50 (SK-OV-3) | GI50 (T47D) | GI50 (U-251) | GI50 (UACC-257) |
| --- | --- | --- | --- | --- | --- | --- | --- | --- | --- | --- | --- | --- | --- | --- | --- | --- | --- | --- | --- |
| COc1ccc(/C=C2\N=C3Sc4c([nH]cnc4=O)N3C2=O)cc1 | > 100 µM (inactive) | > 100 µM (inactive) | > 100 µM (inactive) | > 100 µM (inactive) | > 100 µM (inactive) | > 100 µM (inactive) | > 100 µM (inactive) | > 100 µM (inactive) | > 100 µM (inactive) | > 100 µM (inactive) | > 100 µM (inactive) | > 100 µM (inactive) | > 100 µM (inactive) | > 100 µM (inactive) | > 100 µM (inactive) | > 100 µM (inactive) | > 100 µM (inactive) | > 100 µM (inactive) | > 100 µM (inactive) |
| CSc1nc2ccccc2c(=O)n1/N=C1\C(=O)N(CN2CCOCC2)c2ccc(Cl)cc21 | 25.5 µM (inactive) | 10.6 µM (inactive) | 22.4 µM (inactive) | 8.61 µM (inactive) | 34.3 µM (inactive) | 67 µM (inactive) | 16.8 µM (inactive) | 5.77 µM (inactive) | 28.4 µM (inactive) | 21.8 µM (inactive) | > 100 µM (inactive) | 26 µM (inactive) | 18.1 µM (inactive) | 46.1 µM (inactive) | 38.7 µM (inactive) | 30.6 µM (inactive) | 16.5 µM (inactive) | 32.5 µM (inactive) | 19.8 µM (inactive) |
| Cc1nc2ccc(Br)cc2c(=O)n1-c1nnc(C(C)(C)C)s1 | > 10 µM (inactive) | > 10 µM (inactive) | > 10 µM (inactive) | > 10 µM (inactive) | > 10 µM (inactive) | > 10 µM (inactive) | > 10 µM (inactive) | > 10 µM (inactive) | > 10 µM (inactive) | > 10 µM (inactive) | > 10 µM (inactive) | > 10 µM (inactive) | > 10 µM (inactive) | > 10 µM (inactive) | > 10 µM (inactive) | > 10 µM (inactive) | > 10 µM (inactive) | > 10 µM (inactive) | > 10 µM (inactive) |
| COc1ccc([C@@]23Oc4cc(OC)cc(OC)c4[C@]2(O)[C@H](O)[C@H](C(=O)N(C)C)[C@H]3c2ccccc2)cc1 [ROCAGLAMIDE] | 0.0292 µM (active) | 0.00366 µM (active) | 0.00316 µM (active) | 0.00383 µM (active) | 0.00973 µM (active) | 0.0138 µM (active) | 0.00612 µM (active) | 0.00237 µM (active) | 0.0036 µM (active) | 0.00885 µM (active) | 0.0306 µM (active) | 0.00991 µM (active) | 0.0206 µM (active) | 0.0045 µM (active) | 0.00301 µM (active) | 0.00575 µM (active) | 0.00219 µM (active) | 0.00605 µM (active) | 0.0184 µM (active) |
| Clc1nc(Nc2nc3ccccc3[nH]2)nc(Cl)c1Cc1ccccc1 | > 100 µM (inactive) | 63.5 µM (inactive) | > 100 µM (inactive) | > 100 µM (inactive) | – | 23 µM (inactive) | 97.3 µM (inactive) | > 100 µM (inactive) | > 100 µM (inactive) | > 100 µM (inactive) | > 100 µM (inactive) | > 100 µM (inactive) | > 100 µM (inactive) | > 100 µM (inactive) | > 100 µM (inactive) | > 100 µM (inactive) | 89.3 µM (inactive) | 29.6 µM (inactive) | > 100 µM (inactive) |
| CC(=O)Nc1ccc(-c2nc3ccccc3s2)cc1 | 22.8 µM (inactive) | 64.1 µM (inactive) | 86.7 µM (inactive) | 81.7 µM (inactive) | 20.9 µM (inactive) | 55.5 µM (inactive) | 47.6 µM (inactive) | 1.96 µM (inactive) | 97.5 µM (inactive) | 52.1 µM (inactive) | 28.7 µM (inactive) | – | 23.6 µM (inactive) | 29.6 µM (inactive) | > 100 µM (inactive) | 21.2 µM (inactive) | 31.1 µM (inactive) | 27.5 µM (inactive) | > 100 µM (inactive) |
| Nc1nc(NCC2(CO)CC2)cc(=O)[nH]1 | > 100 µM (inactive) | > 100 µM (inactive) | > 100 µM (inactive) | > 100 µM (inactive) | > 100 µM (inactive) | > 100 µM (inactive) | > 100 µM (inactive) | > 100 µM (inactive) | > 100 µM (inactive) | > 100 µM (inactive) | > 100 µM (inactive) | > 100 µM (inactive) | > 100 µM (inactive) | > 100 µM (inactive) | > 100 µM (inactive) | > 100 µM (inactive) | > 100 µM (inactive) | > 100 µM (inactive) | > 100 µM (inactive) |
| O=C(O)c1cc2ccccc2c(/N=N/c2ccc(S(=O)(=O)Nc3nccs3)cc2)c1O | > 100 µM (inactive) | > 100 µM (inactive) | > 100 µM (inactive) | > 100 µM (inactive) | > 100 µM (inactive) | > 100 µM (inactive) | > 100 µM (inactive) | > 100 µM (inactive) | > 100 µM (inactive) | > 100 µM (inactive) | > 100 µM (inactive) | > 100 µM (inactive) | > 100 µM (inactive) | > 100 µM (inactive) | > 100 µM (inactive) | > 100 µM (inactive) | > 100 µM (inactive) | > 100 µM (inactive) | > 100 µM (inactive) |
| O=C(O)CC(CC(=O)O)C(=O)O [TRICARBALLYLIC ACID] | > 100 µM (inactive) | > 100 µM (inactive) | > 100 µM (inactive) | > 100 µM (inactive) | > 100 µM (inactive) | > 100 µM (inactive) | > 100 µM (inactive) | > 100 µM (inactive) | > 100 µM (inactive) | > 100 µM (inactive) | > 100 µM (inactive) | > 100 µM (inactive) | > 100 µM (inactive) | > 100 µM (inactive) | > 100 µM (inactive) | > 100 µM (inactive) | > 100 µM (inactive) | > 100 µM (inactive) | > 100 µM (inactive) |
| CN(C)CCCNC(=O)c1cc2/c(=C\c3ccc(N(C)C)cc3)c3ccccc3n2[n+]1C | > 100 µM (inactive) | 35.1 µM (inactive) | 26.2 µM (inactive) | 11.9 µM (inactive) | 48.3 µM (inactive) | 22.9 µM (inactive) | 15.7 µM (inactive) | 8.83 µM (inactive) | 24.9 µM (inactive) | 21.3 µM (inactive) | > 100 µM (inactive) | 56.6 µM (inactive) | > 100 µM (inactive) | 40.3 µM (inactive) | 15.6 µM (inactive) | > 100 µM (inactive) | 1.45 µM (inactive) | 22.4 µM (inactive) | 21.4 µM (inactive) |
| Cc1cccc(Nc2nc(NNC(=O)Cc3ccccc3)nc(NNC(=O)c3ccncc3)n2)c1 | > 10 µM (inactive) | > 10 µM (inactive) | > 10 µM (inactive) | > 10 µM (inactive) | > 10 µM (inactive) | > 10 µM (inactive) | > 10 µM (inactive) | – | > 10 µM (inactive) | > 10 µM (inactive) | > 10 µM (inactive) | – | > 10 µM (inactive) | > 10 µM (inactive) | > 10 µM (inactive) | > 10 µM (inactive) | > 10 µM (inactive) | – | > 10 µM (inactive) |
| O=C(O)CSc1ncccc1[N+](=O)[O-] | > 100 µM (inactive) | > 100 µM (inactive) | > 100 µM (inactive) | > 100 µM (inactive) | > 100 µM (inactive) | > 100 µM (inactive) | > 100 µM (inactive) | > 100 µM (inactive) | > 100 µM (inactive) | > 100 µM (inactive) | > 100 µM (inactive) | > 100 µM (inactive) | > 100 µM (inactive) | > 100 µM (inactive) | > 100 µM (inactive) | > 100 µM (inactive) | > 100 µM (inactive) | > 100 µM (inactive) | > 100 µM (inactive) |
| CC(C)(C)OC(=O)[N+](=N)C(=O)C1CCC(=O)N1C(=O)OCc1ccccc1 (configuration not stated) | > 100 µM (inactive) | > 100 µM (inactive) | > 100 µM (inactive) | > 100 µM (inactive) | > 100 µM (inactive) | > 100 µM (inactive) | > 100 µM (inactive) | > 100 µM (inactive) | 86.7 µM (inactive) | > 100 µM (inactive) | > 100 µM (inactive) | > 100 µM (inactive) | > 100 µM (inactive) | > 100 µM (inactive) | > 100 µM (inactive) | > 100 µM (inactive) | > 100 µM (inactive) | > 100 µM (inactive) | – |
| CSc1ccc(/C=C2\N=C(c3ccccc3)N(c3nc4cc(Cl)c(F)cc4s3)C2=O)cc1 | > 100 µM (inactive) | 25 µM (inactive) | 36.2 µM (inactive) | 38.3 µM (inactive) | 25.2 µM (inactive) | 42 µM (inactive) | 36.5 µM (inactive) | 71.3 µM (inactive) | 33 µM (inactive) | – | 32.2 µM (inactive) | 71.3 µM (inactive) | 19.1 µM (inactive) | 51.2 µM (inactive) | 28.4 µM (inactive) | 64.3 µM (inactive) | 26.1 µM (inactive) | 19.6 µM (inactive) | > 100 µM (inactive) |
| CCN1CCC(O)(c2ccc(Oc3ccccc3)cc2)C(C(=O)c2ccc(Oc3ccccc3)cc2)C1 (configuration not stated) | 16.4 µM (inactive) | 5.81 µM (inactive) | 9.27 µM (inactive) | 3.75 µM (inactive) | 11.9 µM (inactive) | 8.87 µM (inactive) | 15.4 µM (inactive) | 13.7 µM (inactive) | 12.9 µM (inactive) | 13.4 µM (inactive) | 16.2 µM (inactive) | 15.4 µM (inactive) | 22.2 µM (inactive) | 14.2 µM (inactive) | 12.5 µM (inactive) | – | 11.6 µM (inactive) | 11.6 µM (inactive) | 12.7 µM (inactive) |
